A short description of the series: Oral bioavailability in human. It counts as ADME, organism-based. Particulars: in vivo.

Each structure is given as a SMILES string.

As for `CCOC(=O)C1=C[C@@H](OC(CC)CC)[C@H](NC(C)=O)[C@@H](N)C1` [OSELTAMIVIR], the bioavailability came to 80%.
With `CCC(CC)O[C@@H]1C=C(C(=O)O)C[C@H](N)[C@H]1NC(C)=O` [OSELTAMIVIR CARBOXYLATE] the figure was 5%.

A word on the bioavailability: it is dose-corrected exposure relative to a reference, in per cent. High values mean much systemic uptake, low ones little systemic uptake.
